According to patent publication US7943655B2, “Polymorphic and pseudopolymorphic forms of trandolaprilat, pharmaceutical compositions and methods for production and use” (Universitat Zurich, priority 2006, dated 2011):
Several values for one entry are separate records, joined by “and”; a condition that tells them apart may be missing. Equal entries are not always repeated.

Key:
[1] = Storage stability of crystalline forms (decomposition to Trandolaprilat diketopiperazine, by HPLC); format: physicochemical; conditions: for Amount of Trandolaprilat Diketopiperazine after Isolation and Drying of the Wet Product: before storage; for Tendency to decompose to Trandolaprilat Diketopiperazine on storage (in words): comparison of crystalline forms, Table 9
Protocol: Purity was determined by HPLC using a Luna C18 (150×4.6 mm, 3 μm; Manufacturer: Phenomenex, Torrence, Calif., USA) column, as well as a Symmetry C18(2) (150×4.6 mm, 3.5 μm; Manufacturer: Waters Corporation, Millford, Mass., USA) column using as mobile phase: Mobile phase A: 0.03% v/v of trifluoroacetic acid in water; Mobile phase B: 0.025% v/v of trifluoroacetic acid in acetonitrile; column temperature 30° C., flow rate: 1.5 ml/min, detection: UV 206 nm; eluent gradient: […]

[2] = target: Angiotensin Converting Enzyme (ACE enzyme) (Homo sapiens, UniProt P12821); conditions: compared with Trandolapril; cited from earlier work
[3] = Solubility in n-butanol with and without water; format: physicochemical
Excerpt: In step (f), an amount of water is removed from the solution of step (e) that is sufficient for inducing crystallization of the Trandolaprilat and provide crystalline Trandolaprilat in a polymorphic or pseudopolymorphic form. Because Trandolaprilat is not soluble in anhydrous n-butanol, its crystallization from the organic layer can be initiated by removing the water, for example, by concentrating an n-butanol/water solution containing the Trandolaprilat using azeotropic distillation (to provide crystalline Trandolaprilat).

[4] = Degradation to Trandolaprilat diketopiperazine in non-hydroxylic solvent (THF solution); format: physicochemical
Excerpt: Furthermore, crystallization and precipitation from non-hydroxylic solvents often provided a resin that could only be difficultly handled.

[5] = storage temperature 20-25, storage time 4 months

Sequence of Angiotensin Converting Enzyme (ACE enzyme) (P12821 30-1306, species assumed): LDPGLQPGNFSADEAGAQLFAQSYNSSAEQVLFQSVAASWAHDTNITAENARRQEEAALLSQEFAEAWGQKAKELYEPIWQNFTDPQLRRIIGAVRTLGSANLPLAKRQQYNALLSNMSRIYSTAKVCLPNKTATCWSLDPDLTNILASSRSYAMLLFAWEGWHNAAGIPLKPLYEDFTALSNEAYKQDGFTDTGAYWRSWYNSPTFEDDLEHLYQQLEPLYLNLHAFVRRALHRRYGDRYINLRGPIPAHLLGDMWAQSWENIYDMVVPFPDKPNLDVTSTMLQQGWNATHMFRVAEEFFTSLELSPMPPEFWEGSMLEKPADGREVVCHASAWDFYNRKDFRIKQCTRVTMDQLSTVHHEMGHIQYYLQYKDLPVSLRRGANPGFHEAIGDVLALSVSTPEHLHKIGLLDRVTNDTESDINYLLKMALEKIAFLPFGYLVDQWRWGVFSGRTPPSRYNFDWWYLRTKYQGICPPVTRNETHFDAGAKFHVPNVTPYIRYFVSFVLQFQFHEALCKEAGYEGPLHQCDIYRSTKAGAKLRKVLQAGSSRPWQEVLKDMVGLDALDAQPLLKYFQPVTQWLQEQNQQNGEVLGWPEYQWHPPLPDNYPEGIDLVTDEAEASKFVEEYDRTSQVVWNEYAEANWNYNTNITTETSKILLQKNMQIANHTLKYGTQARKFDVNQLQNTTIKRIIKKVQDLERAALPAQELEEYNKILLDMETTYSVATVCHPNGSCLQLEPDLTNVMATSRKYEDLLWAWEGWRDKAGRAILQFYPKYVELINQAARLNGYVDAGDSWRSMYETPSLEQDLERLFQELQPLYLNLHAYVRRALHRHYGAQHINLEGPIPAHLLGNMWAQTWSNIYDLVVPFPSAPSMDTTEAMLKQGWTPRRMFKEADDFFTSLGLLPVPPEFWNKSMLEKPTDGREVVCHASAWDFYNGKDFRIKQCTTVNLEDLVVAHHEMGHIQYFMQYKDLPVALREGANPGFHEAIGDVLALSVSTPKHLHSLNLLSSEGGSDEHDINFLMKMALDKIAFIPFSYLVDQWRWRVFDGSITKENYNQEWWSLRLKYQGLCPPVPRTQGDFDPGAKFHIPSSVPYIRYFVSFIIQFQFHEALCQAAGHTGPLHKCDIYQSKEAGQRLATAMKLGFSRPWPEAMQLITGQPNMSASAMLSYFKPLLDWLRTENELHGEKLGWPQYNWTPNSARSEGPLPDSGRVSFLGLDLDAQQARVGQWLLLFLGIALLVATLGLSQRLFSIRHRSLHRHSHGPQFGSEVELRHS

C[C@H](N[C@@H](CCc1ccccc1)C(=O)O)C(=O)N1[C@H](C(=O)O)C[C@H]2CCCC[C@@H]21 [Form A, Trandolaprilat]
Amount of Trandolaprilat Diketopiperazine after Isolation and Drying of the Wet Product [1]: Not Detected | Tendency to decompose to Trandolaprilat Diketopiperazine on storage (in words) [1]: only a very low quantity of the degradation product | Amount of Trandolaprilat Diketopiperazine after Storage [1, 5]: 0.02 % by HPLC

C[C@H](N[C@@H](CCc1ccccc1)C(=O)O)C(=O)N1[C@H](C(=O)O)C[C@H]2CCCC[C@@H]21 [Form B, Trandolaprilat]
Amount of Trandolaprilat Diketopiperazine after Isolation and Drying of the Wet Product [1]: Not Detected | Tendency to decompose to Trandolaprilat Diketopiperazine on storage (in words) [1]: significantly lower | Amount of Trandolaprilat Diketopiperazine after Storage [1, 5]: 0.20 % by HPLC

C[C@H](N[C@@H](CCc1ccccc1)C(=O)O)C(=O)N1[C@H](C(=O)O)C[C@H]2CCCC[C@@H]21 [Form C, Trandolaprilat]
Amount of Trandolaprilat Diketopiperazine after Isolation and Drying of the Wet Product [1]: Not Detected | Tendency to decompose to Trandolaprilat Diketopiperazine on storage (in words) [1]: significantly lower | Amount of Trandolaprilat Diketopiperazine after Storage [1, 5]: 0.26 % by HPLC

C[C@H](N[C@@H](CCc1ccccc1)C(=O)O)C(=O)N1[C@H](C(=O)O)C[C@H]2CCCC[C@@H]21 [Form D, Trandolaprilat]
Amount of Trandolaprilat Diketopiperazine after Isolation and Drying of the Wet Product [1]: Not Detected | Tendency to decompose to Trandolaprilat Diketopiperazine on storage (in words) [1]: only a very low quantity of the degradation product | Amount of Trandolaprilat Diketopiperazine after Storage [1, 5]: 0.03 % by HPLC

C[C@H](N[C@@H](CCc1ccccc1)C(=O)O)C(=O)N1[C@H](C(=O)O)C[C@H]2CCCC[C@@H]21 [Form E, Trandolaprilat]
Amount of Trandolaprilat Diketopiperazine after Isolation and Drying of the Wet Product [1]: 0.34 %, by HPLC and 0.19 %, by HPLC | Tendency to decompose to Trandolaprilat Diketopiperazine on storage (in words) [1]: greater tendency to decompose | Amount of Trandolaprilat Diketopiperazine after Storage ([1]; storage temperature 4-8, storage time 3 months): 0.75 % by HPLC | Amount of Trandolaprilat Diketopiperazine after Storage ([1]; storage temperature 20-25, storage time 3 months): 0.92 % by HPLC

C[C@H](N[C@@H](CCc1ccccc1)C(=O)O)C(=O)N1[C@H](C(=O)O)C[C@H]2CCCC[C@@H]21 [Trandolaprilat]
Potency as an inhibitor of ACE activity relative to Trandolapril [2]: about eight times more potent than Trandolapril | Solubility ([3]; anhydrous n-butanol): not soluble | Solubility ([3]; free amino acid form, n-butanol saturated with water): soluble | Formation of degradation product Trandolaprilat diketopiperazine ([4]; THF solution heated at reflux temperature): almost complete within a few hours | Rate of degradation to Trandolaprilat diketopiperazine ([4]; dissolved in THF, room temperature): at least 0.2 % per hour
